In publication PMC12124364 (Science Advances, 2025):

Columns and labels:
[1] = system: HIV-1 K103N mutation; conditions: cited from earlier work
[2] = system: HIV-1 5i3res strain; experiment: Anti-HIV activity against selected 5i3res strain in MT-4 cells; type: cell-based; conditions: for EC50: Human immunodeficiency virus 1, MT4, read-out: EC50 5i3res strain
[3] = system: HIV-1 5e2res strain; experiment: Anti-HIV activity against selected 5e2res strain in MT-4 cells; type: cell-based; conditions: for EC50: Human immunodeficiency virus 1, MT4, read-out: EC50 5e2res strain; for RF (resistance fold), 5e2res strain: EC50(mutant strain)/EC50(IIIB strain)
[4] = system: HIV-1 WT strain (IIIB); experiment: Anti-HIV activity against HIV-1 IIIB in MT-4 cells; type: cell-based; conditions: Human immunodeficiency virus 1, IIIB, MT4, read-out: EC50 IIIB strain
[5] = system: HIV-1 K101P mutation; conditions: cited from earlier work
[6] = system: HIV-1 GH9 (K101P/K103N/V108I); experiment: Anti-HIV-1 activity against triple-mutant strain GH9 in TZM-bl cells; type: cell-based; conditions: Human immunodeficiency virus 1, TZM-bl, read-out: EC50 GH9
[7] = system: CYP1A2, CYP2C9, CYP2C19, CYP2D6 (range over isozymes); experiment: Cytochrome P450 inhibition assay, ranges over isozymes; type: in vitro ADME; conditions: human, human liver microsomes
[8] = system: HIV-1 p5735 (K101E/Y181V); experiment: Anti-HIV-1 activity against NNRTI-resistant strain p5735 in TZM-bl cells; type: cell-based; conditions: Human immunodeficiency virus 1, TZM-bl, read-out: EC50 p5735
[9] = system: HIV-1 p5375 (A98G/K101E/E138K/Y181C); experiment: Anti-HIV-1 activity against NNRTI-resistant strain p5375 in TZM-bl cells; type: cell-based; conditions: Human immunodeficiency virus 1, TZM-bl, read-out: EC50 p5375
[10] = system: HIV-1 p1579 (E138G/H221Y/F227L/M230L); experiment: Anti-HIV-1 activity against NNRTI-resistant strain p1579 in TZM-bl cells; type: cell-based; conditions: Human immunodeficiency virus 1, TZM-bl, read-out: EC50 p1579
[11] = system: HIV-1 p1833 (A98G/K101E/Y181C/G190A); experiment: Anti-HIV-1 activity against NNRTI-resistant strain p1833 in TZM-bl cells; type: cell-based; conditions: Human immunodeficiency virus 1, TZM-bl, read-out: EC50 p1833
[12] = system: HIV-1 GH9 (K101P/K103N/V108I); conditions: cited from earlier work
[13] = Cytotoxicity in TZM-bl cells; type: cell-based; conditions: human

Cc1ccnc2c1NC(=O)c1cccnc1N2C1CC1 [NVP, nevirapine]
reduction in susceptibility by K103N mutation [1]: ~50 fold | EC50 5i3res strain ([2]; MT-4 cells): completely inactive | EC50 5e2res strain ([3]; MT-4 cells): completely inactive

O=c1[nH]cnc2c1ncn2[C@H]1CC[C@@H](CO)O1 [ddI, didanosine]
EC50 [2]: 8930 nM | EC50 [4]: 19700 nM

Cc1cc(C#N)cc(C)c1Oc1nc(Nc2ccc(C#N)cc2)nc(N)c1Br [ETR, etravirine]
reduction in efficacy by K101P mutation alone [5]: about five-fold | EC50 [6]: 104 ± 38.2 nM | IC50 at 10 min [7]: 277 to 12000 nM | EC50 [8]: 14.3 ± 5.07 nM | EC50 [9]: 37.6 ± 8.06 nM | EC50 [10]: 74.9 ± 18.9 nM | EC50 [11]: 11.1 ± 2.76 nM

Cc1cc(/C=C/C#N)cc(C)c1Nc1ccnc(Nc2ccc(C#N)cc2)n1 [RPV, rilpivirine]
reduction in efficacy by K101P mutation alone [5]: up to 243 fold | EC50 [6]: 1710 ± 339 nM | EC50 [2]: 74.6 nM | resistance conferred by triple-mutant strain GH9 [12]: > 162 fold | CC50 at 4 days [13]: > 54500 nM | EC50 [8]: 151 ± 32 nM | EC50 [3]: 16.6 nM | EC50 [9]: 1.07 ± 0.3 nM | EC50 [10]: 1.26 ± 0.38 nM

Cc1cn([C@H]2C[C@H](N=[N+]=[N-])[C@@H](CO)O2)c(=O)[nH]c1=O [AZT, zidovudine]
RF (resistance fold), 5i3res strain ([2]; EC50(mutant strain)/EC50(IIIB strain)): 1.2 | EC50 [2]: 48.9 nM | EC50 [4]: 40.9 nM | RF (resistance fold), 5e2res strain [3]: 1.3 | EC50 [3]: 51.9 nM

O=C1Nc2ccc(Cl)cc2[C@@](C#CC2CC2)(C(F)(F)F)O1 [EFV, efavirenz]
reduction in efficacy by K101P mutation alone [5]: > 50 fold | reduction in susceptibility by K103N mutation [1]: about 20 fold | resistance conferred by triple-mutant strain GH9 [12]: up to 12,931 fold

Nc1ccn([C@H]2CC[C@@H](CO)O2)c(=O)n1 [ddC, zalcitabine]
EC50 [4]: 890 nM | RF (resistance fold), 5e2res strain [3]: 0.8 | EC50 [3]: 690 nM
